From US20210015819A1, “METHODS FOR TREATMENT OF CANCERS WITH EGFR ACTIVATING MUTATIONS” (Board of Regents, The University of Texas System, priority 2018, published 2021)
Where two headings read alike, the source gives them in different places.

Tested on: YUL0019 PR8 cells
Assay: Drug sensitivity of poziotinib resistant YUL0019 cells (FIG. 8)
Type: cell-based

## Cc1csc(-c2nnc(Nc3ccc(Oc4ncccc4-c4ccnc(N)n4)cc3)c3ccccc23)c1 [AMG 900]
Listed as AMG900
  Sensitivity of YUL0019 PR8 (poziotinib resistant) cells: sensitive
Listed as AMG-900
  Sensitivity of YUL0019 PR8 (poziotinib resistant) cells: highly sensitive

## CN1CC[C@H](c2c(O)cc(O)c3c(=O)cc(-c4ccccc4Cl)oc23)[C@H](O)C1 [Alvocidib]
  Sensitivity of YUL0019 PR8 (poziotinib resistant) cells: highly sensitive

## CC[C@@H]1C(=O)N(C)c2cnc(Nc3ccc(C(=O)N[C@H]4CC[C@H](N5CCN(CC6CC6)CC5)CC4)cc3OC)nc2N1C(C)C [BI6727 (Volasertib)]
  Sensitivity of YUL0019 PR8 (poziotinib resistant) cells: highly sensitive

## Cc1ccc(C(=O)N(CCCN)[C@@H](c2nc3cc(Cl)ccc3c(=O)n2Cc2ccccc2)C(C)C)cc1 [Ispinesib]
  Sensitivity of YUL0019 PR8 (poziotinib resistant) cells: highly sensitive
Listed as ispinasib
  Sensitivity of YUL0019 PR8 (poziotinib resistant) cells: sensitive

## COc1cc(Nc2ncc3c(n2)-c2ccc(Cl)cc2C(c2c(F)cccc2OC)=NC3)ccc1C(=O)O [MLN8237 (Alisertib)]
Listed as Alisertib
  Sensitivity of YUL0019 PR8 (poziotinib resistant) cells: sensitive
Listed as alisertib
  Sensitivity of YUL0019 PR8 (poziotinib resistant) cells: highly sensitive

## C=CC(=O)N1CCC(Oc2cc3c(Nc4ccc(Cl)c(Cl)c4F)ncnc3cc2OC)CC1 [poziotinib, 1-[4-[4-(3,4-dichloro-2-fluoroanilino)-7-methoxyquinazolin-6-yl]oxypiperidin-1-yl]prop-2-en-1-one]
  Sensitivity of YUL0019 PR8 (poziotinib resistant) cells: resistant
